Results on 8 compounds are retold here after patent US20240002450A1 (priority 2020, published 2024).

Bridge positions count the residues as written; N and C are the ends. Square brackets hold non-standard residues; d marks the D form. Peptide text beside a SMILES is read from it. S5 = C=CCCC[C@](C)(N)C(=O)O; βAla = NCCC(=O)O

The first series deals with Makona variant of EBOV. Format: cell-based, Ebola virus.
Turning to “HX1WTKX2ITDKINQIIHDFVNK, wherein each of X1 and X2 is (S)-2-(4′-pentenyl)Alanine [SEboV-2]”, the “antiviral activity (prevention of EBOV infection)” value is reported as “displayed antiviral activity”.

In the case of “HX1WTKNITX2KINQIIHDFVNK, wherein X1 is (R)-2-(7′-octenyl) alanine and X2 is (S)-2-(4′-pentenyl)Alanine [SEboV-1]”, the “antiviral activity (prevention of EBOV infection)” value was “displayed antiviral activity”.

A further series concerns Zaire Ebola virus. In kind it is cell-based.
As to “HX1WTKX2ITDKIDQIIHDFVDK, wherein each of X1 and X2 is (S)-2-(4′-pentenyl)Alanine [Ac3]”, the “infected cells after 24 hours of infection” value (from here on “infected cells after 24 hours”) is given as “almost no infected cells” and the “inhibition of virus infection at six hours post-infection” value (from here on “inhibition of virus infection”) is listed as “inhibited the virus”.

In the case of “X1DWTKNIX2DKIDQIIHDFVDK, wherein X1 is (R)-2-(7′-octenyl) alanine and X2 is (S)-2-(4′-pentenyl)Alanine [Ac4]”, the “infected cells after 24 hours” value is listed as “almost no infected cells” and the “inhibition of virus infection” value was “inhibited the virus”.

“HDWTKNITDKIX1QIIX2DFVDK, wherein each of X1 and X2 is (S)-2-(4′-pentenyl)Alanine [Ac9]”: the “infected cells after 24 hours” value is given as “almost no infected cells” and the “inhibition of virus infection” value was “inhibited the virus”.

Take “HDWTX1NIX2DKIX3QIIHDFVDK, wherein X1 is (S)-2-(4′-pentenyl)Alanine, X2 is 2,2-bis(4-pentenyl)glycine, and X3 is (S)-2-(4′-pentenyl)Alanine [Ac5]”: the “infected cells after 24 hours” value is “almost no infected cells” and the “inhibition of virus infection” value was “inhibited the virus”.

Another series relates to Huh-7 hepatocellular carcinoma cells.
`CC[C@H](C)[C@H](NC(=O)[C@H](CCC(N)=O)NC(=O)[C@H](CC(N)=O)NC(=O)[C@@H](NC(=O)[C@]1(C)CCCC=CCCC[C@](C)(NC(=O)[C@H](CCCCN)NC(=O)[C@@H](NC(=O)[C@H](Cc2c[nH]c3ccccc23)NC(=O)[C@H](CC(N)=O)NC(=O)[C@H](Cc2c[nH]cn2)NC(=O)CCNC(C)=O)[C@@H](C)O)C(=O)N[C@@H]([C@@H](C)CC)C(=O)N[C@@H]([C@@H](C)O)C(=O)N[C@@H](CC(N)=O)C(=O)N1)[C@@H](C)CC)C(=O)N[C@H](C(=O)N[C@@H](Cc1c[nH]cn1)C(=O)N[C@@H](CC(=O)O)C(=O)N[C@@H](Cc1ccccc1)C(=O)N[C@H](C(=O)N[C@@H](CC(N)=O)C(=O)N[C@@H](CCCCN)C(N)=O)C(C)C)[C@@H](C)CC` [SEboV-9, HNWTKX1ITNX2INQIIHDFVNK, wherein each of X1 and X2 is (S)-2-(4′-pentenyl)Alanine] (Ac-[βAla]HNWTK[S5]ITN[S5]INQIIHDFVNK-NH2; staple 7-11): the “cell permeability (ability to enter cells)” value was “readily penetrated cells”.

Turning to `CC[C@H](C)[C@H](NC(=O)[C@H](CCCCN)NC(=O)[C@H](CC(=O)O)NC(=O)[C@@H](NC(=O)[C@@H](NC(=O)[C@H](CC(N)=O)NC(=O)[C@H](CCCCN)NC(=O)[C@@H](NC(=O)[C@H](Cc1c[nH]c2ccccc12)NC(=O)[C@H](CC(=O)O)NC(=O)[C@H](Cc1c[nH]cn1)NC(=O)CCNC(C)=O)[C@@H](C)O)[C@@H](C)CC)[C@@H](C)O)C(=O)N[C@@H](CC(=O)O)C(=O)N[C@@H](CCC(N)=O)C(=O)N[C@H](C(=O)N[C@H](C(=O)N[C@@H](Cc1c[nH]cn1)C(=O)N[C@@H](CC(=O)O)C(=O)N[C@@H](Cc1ccccc1)C(=O)N[C@H](C(=O)N[C@@H](CC(=O)O)C(=O)N[C@@H](CCCCN)C(N)=O)C(C)C)[C@@H](C)CC)[C@@H](C)CC` [WT EboV, reference compound], the “cell permeability (ability to enter cells)” value was “not cell permeable”.
